pIC50: −log10 of the molar value. Like-named read-outs stand apart in the source and are kept apart here.

This note sets out measurements from patent publication US20120094998A1, “Oligomer-Protein Tyrosine Kinase Inhibitor Conjugates” (Nektar Therapeutics, priority 2009, published 2012).

One test deals with ABL (T315I) (Homo sapiens, UniProt P00519, T315I). Put plainly: Activity against various protein tyrosine kinases: ABL (T315I). It counts as biochemical. Conditions: for inhibition at 0.01 µM: read-out: % Inhibition at 10 nM; for inhibition at 1 µM: read-out: % Inhibition at 1 μM. The method, then:
(§1) Using techniques know those of ordinary skill in the art, compounds were tested for activity against various protein tyrosine kinases.

For a further test, the target named is T1, IKK-beta (Homo sapiens, UniProt O14920).
T1 sequence (O14920 1-756): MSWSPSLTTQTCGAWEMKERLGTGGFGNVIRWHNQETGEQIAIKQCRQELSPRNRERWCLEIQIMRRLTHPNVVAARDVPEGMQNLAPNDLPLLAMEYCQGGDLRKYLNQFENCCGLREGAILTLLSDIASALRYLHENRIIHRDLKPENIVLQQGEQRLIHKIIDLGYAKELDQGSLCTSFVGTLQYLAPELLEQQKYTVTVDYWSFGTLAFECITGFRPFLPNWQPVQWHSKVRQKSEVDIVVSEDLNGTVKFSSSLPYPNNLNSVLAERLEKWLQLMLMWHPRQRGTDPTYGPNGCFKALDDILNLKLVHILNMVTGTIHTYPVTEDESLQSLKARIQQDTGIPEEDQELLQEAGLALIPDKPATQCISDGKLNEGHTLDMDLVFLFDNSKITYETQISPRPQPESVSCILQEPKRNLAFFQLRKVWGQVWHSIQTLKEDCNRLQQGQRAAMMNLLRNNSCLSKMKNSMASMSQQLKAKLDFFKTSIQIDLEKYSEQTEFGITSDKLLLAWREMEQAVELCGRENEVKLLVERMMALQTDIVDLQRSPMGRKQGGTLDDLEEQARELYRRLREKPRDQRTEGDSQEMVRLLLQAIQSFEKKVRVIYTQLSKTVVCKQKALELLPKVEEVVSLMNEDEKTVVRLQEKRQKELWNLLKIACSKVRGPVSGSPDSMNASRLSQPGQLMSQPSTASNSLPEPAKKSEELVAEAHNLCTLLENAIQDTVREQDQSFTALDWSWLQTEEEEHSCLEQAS
Put plainly: Activity against various protein tyrosine kinases: IKK-beta. It counts as biochemical. Conditions: for inhibition at 0.01 µM: 10 nM. As to the method:
as §1

The target in a further test is T2, p38-delta (Homo sapiens, UniProt O15264).
T2 sequence (O15264 1-365): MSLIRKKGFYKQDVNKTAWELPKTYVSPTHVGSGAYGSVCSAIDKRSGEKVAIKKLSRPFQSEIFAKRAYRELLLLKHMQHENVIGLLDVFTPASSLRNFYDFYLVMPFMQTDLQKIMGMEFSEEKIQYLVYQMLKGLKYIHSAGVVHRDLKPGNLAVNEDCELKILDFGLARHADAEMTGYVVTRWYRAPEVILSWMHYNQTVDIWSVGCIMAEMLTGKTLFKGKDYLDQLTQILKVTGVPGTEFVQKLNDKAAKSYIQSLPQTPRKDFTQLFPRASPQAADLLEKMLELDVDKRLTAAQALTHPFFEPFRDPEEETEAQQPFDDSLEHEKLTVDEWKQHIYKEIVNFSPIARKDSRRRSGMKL
Put plainly: Activity against various protein tyrosine kinases: p38-delta. It counts as biochemical. Conditions: for inhibition at 0.01 µM: 10 nM. As to the method: as §1

A further test has as its target T3, PKD2 (Homo sapiens, UniProt Q9BZL6).
T3 sequence (Q9BZL6 1-878): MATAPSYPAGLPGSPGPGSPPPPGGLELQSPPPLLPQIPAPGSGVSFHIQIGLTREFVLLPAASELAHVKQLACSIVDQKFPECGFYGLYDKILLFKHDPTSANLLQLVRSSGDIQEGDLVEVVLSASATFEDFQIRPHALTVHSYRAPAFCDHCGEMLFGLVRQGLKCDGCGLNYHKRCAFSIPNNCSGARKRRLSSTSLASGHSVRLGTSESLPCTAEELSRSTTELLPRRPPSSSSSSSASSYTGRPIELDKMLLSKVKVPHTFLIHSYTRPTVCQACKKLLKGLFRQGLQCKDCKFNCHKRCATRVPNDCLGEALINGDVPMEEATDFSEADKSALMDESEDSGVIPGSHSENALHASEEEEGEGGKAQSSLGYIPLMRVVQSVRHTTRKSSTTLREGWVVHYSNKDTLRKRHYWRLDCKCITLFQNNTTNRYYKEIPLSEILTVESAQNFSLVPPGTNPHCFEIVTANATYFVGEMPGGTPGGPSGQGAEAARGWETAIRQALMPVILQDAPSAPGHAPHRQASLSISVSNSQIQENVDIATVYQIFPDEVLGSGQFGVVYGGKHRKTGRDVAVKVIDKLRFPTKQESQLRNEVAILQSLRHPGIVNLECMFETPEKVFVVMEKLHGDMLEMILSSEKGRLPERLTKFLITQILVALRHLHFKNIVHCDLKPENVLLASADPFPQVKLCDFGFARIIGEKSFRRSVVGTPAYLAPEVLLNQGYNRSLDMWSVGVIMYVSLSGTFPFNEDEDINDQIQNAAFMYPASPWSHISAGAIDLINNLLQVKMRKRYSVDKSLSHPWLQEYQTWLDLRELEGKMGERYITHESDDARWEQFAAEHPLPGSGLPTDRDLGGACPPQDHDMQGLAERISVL
The experiment in a line: Activity against various protein tyrosine kinases: PKD2. Particulars: for inhibition at 0.01 µM: 10 nM. It counts as biochemical. The method, then: as §1

A further test deals with SRC (Homo sapiens, UniProt P12931). Put plainly: Activity against various protein tyrosine kinases: SRC. It counts as biochemical. Conditions: for inhibition at 0.01 µM: 10 nM. As to the method: as §1
A further test addresses YES (Homo sapiens, UniProt P07947). The experiment in a line: Activity against various protein tyrosine kinases: YES. It counts as biochemical. Particulars: for inhibition at 0.01 µM: 10 nM. As to the method:
as §1

For test [1], the target named is T4, ABL (Homo sapiens, UniProt P00519).
Test [2] deals with T4, ABL. The experiment in a line: Off-chip mobility-shift kinase assay (Caliper LABCHIP), ABL.

YES, sequence (P07947 whole entry, species assumed): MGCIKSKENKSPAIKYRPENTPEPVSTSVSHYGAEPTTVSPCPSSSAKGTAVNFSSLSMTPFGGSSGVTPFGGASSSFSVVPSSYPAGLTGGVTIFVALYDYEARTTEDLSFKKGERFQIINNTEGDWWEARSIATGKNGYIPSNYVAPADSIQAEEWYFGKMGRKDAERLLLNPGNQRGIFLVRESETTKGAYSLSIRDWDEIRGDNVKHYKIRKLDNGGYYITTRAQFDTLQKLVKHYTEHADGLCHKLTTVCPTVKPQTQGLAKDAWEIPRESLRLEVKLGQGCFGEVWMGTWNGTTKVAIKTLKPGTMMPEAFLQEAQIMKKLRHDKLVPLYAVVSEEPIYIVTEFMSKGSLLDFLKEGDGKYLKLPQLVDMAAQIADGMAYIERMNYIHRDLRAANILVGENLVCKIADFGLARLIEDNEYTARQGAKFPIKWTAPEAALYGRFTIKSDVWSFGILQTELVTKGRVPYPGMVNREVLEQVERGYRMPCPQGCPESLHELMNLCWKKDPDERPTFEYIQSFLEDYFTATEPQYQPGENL
SRC, sequence (P12931 whole entry, species assumed): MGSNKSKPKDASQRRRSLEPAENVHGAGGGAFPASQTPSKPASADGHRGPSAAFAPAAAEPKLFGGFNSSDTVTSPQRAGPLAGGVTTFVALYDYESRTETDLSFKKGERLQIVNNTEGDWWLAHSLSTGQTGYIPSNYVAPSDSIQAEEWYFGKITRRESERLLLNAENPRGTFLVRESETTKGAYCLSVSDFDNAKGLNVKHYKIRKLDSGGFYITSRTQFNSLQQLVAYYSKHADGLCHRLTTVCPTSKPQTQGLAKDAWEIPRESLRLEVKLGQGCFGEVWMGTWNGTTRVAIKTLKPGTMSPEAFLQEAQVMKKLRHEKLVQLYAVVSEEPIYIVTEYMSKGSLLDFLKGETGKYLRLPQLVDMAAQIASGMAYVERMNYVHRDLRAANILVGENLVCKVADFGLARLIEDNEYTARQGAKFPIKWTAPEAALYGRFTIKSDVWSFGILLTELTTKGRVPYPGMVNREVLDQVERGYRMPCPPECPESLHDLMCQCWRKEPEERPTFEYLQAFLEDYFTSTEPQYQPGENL

Broadly, the inhibition is the relative decrease from the control value, in per cent. By pIC50 is commonly meant −log10 of the IC50, conventionally taken in molar units. `COCCOCCOCCNC(=O)OCCN1CCN(c2cc(Nc3ncc(C(=O)Nc4c(C)cccc4Cl)s3)nc(C)n2)CC1` [mPEG3-NHCOO-Dasatinib]: at ABL (T315I), the inhibition at 0.01 µM was 1% and the inhibition at 1 µM turned out to be 36%. Further, on IKK-beta, the inhibition at 0.01 µM is 0% and the inhibition at 1 µM was 1%. For the same molecule, on p38-delta, the inhibition at 0.01 µM was determined as 0% and the inhibition at 1 µM stood at 2%. Further, on PKD2, the inhibition at 0.01 µM was found to be 12% and the inhibition at 1 µM is -5%. Further, at SRC, the inhibition at 0.01 µM is 99% and the inhibition at 1 µM stood at 99%. Further, on YES, the inhibition at 0.01 µM turned out to be 100% and the inhibition at 1 µM was 100%. At ABL [1], the “ABL AVG % Activity at 1.0E−09” value is 4%, the “ABL AVG % Activity at 1.0E−10” value is reported as 81%, the “ABL AVG % Activity at 1.0E−11” value amounted to 99% and the “ABL AVG % Activity at 3.0E−09” value is listed as 0%. Moreover, at ABL [1], the “ABL AVG % Activity at 3.0E−10” value is given as 47% and the “ABL AVG % Activity at 3.0E−11” value was determined as 95%. Also, the pIC50 at ABL [2] was 9.52.

In the case of `COCCOCCOCCOCCOCCOCCOCCNC(=O)OCCN1CCN(c2cc(Nc3ncc(C(=O)Nc4c(C)cccc4Cl)s3)nc(C)n2)CC1` [mPEG7-NHCOO-Dasatinib], the inhibition at 0.01 µM on ABL (T315I) (ABL (T315I), 10 nM) came to 4%; at IKK-beta, 2%; against p38-delta, 0%; at PKD2, 3%; on SRC, 98%; against YES, 100%. In addition, the inhibition at 1 µM was found to be 26% at ABL (T315I) (ABL (T315I), 1 μM); 2% at IKK-beta; 0% against p38-delta; 4% at PKD2; 98% on SRC; 102% against YES. Besides, at ABL [2], the negative-log IC50 (pIC50) is 9.49. For the same molecule, the “ABL AVG % Activity at 1.0E−09” value at ABL [2] (concentration 1.0E−09, dasatinib-corresponding compounds) is recorded as 4%. In addition, on ABL [2] (concentration 1.0E−10, dasatinib-corresponding compounds), the “ABL AVG % Activity at 1.0E−10” value turned out to be 80%. Further, the “ABL AVG % Activity at 1.0E−11” value at ABL [2] (concentration 1.0E−11, dasatinib-corresponding compounds) is reported as 98%. Moreover, the “ABL AVG % Activity at 3.0E−09” value at ABL [2] (concentration 3.0E−09, dasatinib-corresponding compounds) is on record as −1%. Also, at ABL [2] (concentration 3.0E−10, dasatinib-corresponding compounds), the “ABL AVG % Activity at 3.0E−10” value is reported as 48%. The “ABL AVG % Activity at 3.0E−11” value at ABL [2] (concentration 3.0E−11, dasatinib-corresponding compounds) came to 91%.
